# Reference: patent US11690858B1, “Neuroprotective mixture for mitigating the harmful effects of ischemic stroke” (Tricerapro Holding, LLC, priority 2018, dated 2023)
# “And” between values parts separate entries of the source, which are not always exact repeats. Equal entries are not always repeated.
# Experiments:
# [1] = test system: rat model of ischemic stroke; assay: Infarct volumes by treatment groups in a rat model of ischemic stroke; format: in vivo; design: unit not given here; details: for Infarct volume, Contra, Average / Infarct volume, Infarct, Average: average of 5 animals; for Infarct volume, Contra / Infarct volume, Infarct: individual animals; for Infarct volume, Contralateral / Infarct volume, Ipsilateral: rounded average
# Excerpt: Additional studies using a validated rat model for ischemic stroke have also been conducted. These studies made comparisons in stroke volumes between five different treatment groups: a. Ischemic stroke model in aged rats; no reperfusion; no neuroprotection b. Ischemic stroke model in aged rats; no reperfusion; neuroprotection administered c. Ischemic stroke model in aged rats; reperfusion (tPA) given; no neuroprotection d. Ischemic model in young rats; no reperfusion; no neuroprotection e. Ischemic stroke model in young rats; reperfusion (tPA) given; no neuroprotection
# [2] = test system: diffuse anoxia injury model in rats; details: cited from earlier work; for amount of neuronal injury: diffuse anoxia injury model in rats; for entry into the cerebrospinal fluid (CSF): rats
# [3] = test system: rat model of ischemic infarct; details: cited from earlier work
# [4] = test system: fluid percussion model of head trauma; details: diffuse neuronal injury; cited from earlier work
Compound,"Infarct volume, Contra, Average ([1]; aged rats, untreated aged 1.412)","Infarct volume, Infarct, Average ([1]; aged rats, untreated aged 12.918)","Infarct volume, Contra ([1]; aged rats)","Infarct volume, Infarct ([1]; aged rats)","Infarct volume, Contralateral ([1]; aged rats, untreated aged 1.4)","Infarct volume, Ipsilateral ([1]; aged rats, untreated aged 12.9)","Infarct volume, Contra, Average ([1]; young rats, untreated young 1.028)","Infarct volume, Infarct, Average ([1]; young rats, untreated young 8.012)","Infarct volume, Contra ([1]; young rats)","Infarct volume, Infarct ([1]; young rats)","Infarct volume, Contralateral ([1]; young rats, untreated young 1)","Infarct volume, Ipsilateral ([1]; young rats, untreated young 8)",amount of neuronal injury [2],entry into the cerebrospinal fluid (CSF) [2],"average size of infarcts ([3]; intraperitoneal injection, rat model of ischemia, reduced from 165 mm^3)","size of the measured infarct ([3]; intraperitoneal, 1 mmol/kg immediately after MCA occlusion)",extent of neuronal injury [4]
tissue plasminogen activator [IPA],1.086,8.868,1.29 and 0.87 and 0.81 and 1.39 and 1.07,9.58 and 7.26 and 7.85 and 8.95 and 10.7,1.1,8.9,1.178,4.208,1.07 and 1.28 and 1.66 and 0.52 and 1.36,3.75 and 4.35 and 3.64 and 4.1 and 5.2,1.2,4.2,,,,,
O=S(=O)([O-])[O-].[Mg+2] [magnesium sulfate],,,,,,,,,,,,,alter the amount of neuronal injury,able to enter the cerebrospinal fluid (CSF),,,
"[Cl-].[Cl-].[Mg+2] [MgCl2, magnesium chloride]",,,,,,,,,,,,,alter the amount of neuronal injury,able to enter the cerebrospinal fluid (CSF),122 mm^3,decreased the size of the measured infarct,limits the extent of neuronal injury
